The source of these data is PMC4418665, “Cyclization of the Urokinase Receptor-Derived Ser-Arg-Ser-Arg-Tyr Peptide Generates a Potent Inhibitor of Trans-Endothelial Migration of Monocytes” (PLoS ONE, 2015).

The nature of data set [1]: Serum stability in human serum (RP-HPLC). The conditions noted are these: 37°C, peptide 10^-2 mol/L, acetonitrile precipitation; for remaining at 1 h: RP-HPLC C18, % of concentration at time 0, read-out: residual concentration after one hour of exposure to serum; for remaining at 24 h: RP-HPLC C18, % of concentration at time 0, read-out: residual concentration after 24 hours in serum. The class given is in vitro ADME. The method, then:
Cyclization of peptides listed in Table 1was obtained as described in the Material and Methods, using the strategy depicted in the S1 Fig. The stability of the linear peptide Ser-Arg-Ser-Arg-Tyr (SRSRY) and cyclized peptide Ser-Arg-Ser-Arg-Tyr [SRSRY] in human serum was investigated through incubation of the peptide at a 10^–2 mol/L in human serum and samples were taken at different time points and analysed by Reversed-phase chromatography (RP-HPLC). Serum-dependent degradation of peptides was monitored for up to 24 hours.
Fig 1 Stability of SRSRY and [SRSRY] peptides in human serum. The stability of [SRSRY] and SRSRY was performed by the injection of the peptide at a 10^–2 mol/L in human serum at 37°C. Intervals of analysis by RP-HPLC on the compound incubated in serum were carried out growing with time from 1 to 24 hours. Values are expressed as a percentage of peptide concentration assessed at time 0. [SRSRY]
The stability of SRSRY and [SRSRY] was investigated in human serum. The peptides were incubated at 37°C in human serum at a concentration of 10^-2mol/L. Aliquots ([…]) of serum were removed at time points varying from 0, 1, 2, 4, 6, and 24 hours and acetonitrile ([…]) was added to each aliquot before centrifuging (13000 rpm, 15 min). Aliquots ([…]) of the supernatant were then analyzed by RP-HPLC after passing through Phenomenex Luna 100A C18 5μ, linear gradient from 0–90% acetonitrile in water over 25 minutes.

Another data set deals with T1, FPR1 (Homo sapiens, UniProt P21462).
T1 sequence (P21462 1-350): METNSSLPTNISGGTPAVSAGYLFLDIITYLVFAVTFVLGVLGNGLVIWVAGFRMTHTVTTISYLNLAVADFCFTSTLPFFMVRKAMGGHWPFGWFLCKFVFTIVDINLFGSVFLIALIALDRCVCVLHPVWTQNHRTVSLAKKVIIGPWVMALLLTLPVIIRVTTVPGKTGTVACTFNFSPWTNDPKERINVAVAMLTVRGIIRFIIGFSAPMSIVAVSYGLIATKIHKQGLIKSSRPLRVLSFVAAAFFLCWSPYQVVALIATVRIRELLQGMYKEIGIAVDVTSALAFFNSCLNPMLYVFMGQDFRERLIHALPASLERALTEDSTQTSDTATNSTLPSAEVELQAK
Put plainly: Agonist-dependent FPR1 internalization at 37°C, fluorescence microscopy, RBL-2H3/ETFR cells. The conditions noted are these: 100 nM peptide 30 min at 37°C, then 10 nM FITC-fMLF 30 min at 37°C. On the set-up: expressed in transfected cells. The class given is cell-based. The method, then: We have previously documented that SRSRY competes with the bacterial-derived N-formyl-methionyl-leucyl-phenylalanine peptide (fMLF) for binding to FPR type 1 (FPR1) and that both SRSRY and fMLF promote cell migration by triggering FPR1 internalization. […] Quantification of cell-associated fluorescence was assessed by reading cell lysates with a fluorescence plate reader. RBL-2H3 cells lack FPR1, thus they display very low uptake that was not saturable with unlabeled fMLF (Fig 2A). […] To evaluate the effect of [SRSRY] on agonist-dependent FPR1 internalization, binding experiments were performed at 37°C. […] Thus, we assessed whether [SRSRY] elicits effects on fMLF-directed cell migration. RBL-2H3/ETFR cell migration toward 10 nM fMLF was monitored in real-time for 4 hours as Cell Index changes due to the adhesion of migrating cells to microelectrodes using the xCELLigence RTCA technology as previously described. […]
Fig 2 Both linear and cyclic SRSRY peptides bind to FPR1. […] Fluorimetric measurement of cell-associated fluorescence was assed using 485 nm excitation and 535 nm emission filters. Data are expressed as a percentage of the fluorescence associated to RBL-2H3 cells exposed to FITC-fMLF alone (CTL = 100%) and represent a mean ± SD from triplicates. *Statistical significance (t-test) against None with p<0.001. […] Cell migration of RBL-2H3/ETFR cells monitored by the xCELLigence system. […]

Peptide text beside a SMILES is read from it.

Take `N=C(N)NCCC[C@H](NC(=O)[C@H](CO)NC(=O)[C@H](CCCNC(=N)N)NC(=O)[C@@H](N)CO)C(=O)N[C@@H](Cc1ccc(O)cc1)C(N)=O` [SRSRY, H-Ser-Arg-Ser-Arg-Tyr-NH2] (H-SRSRY-NH2): in data set [1], the remaining at 1 h is less than 75% and the remaining at 24 h is less than 50%. For the same compound, on FPR1, the “agonist-dependent FPR1 internalization in RBL-2H3/ETFR cells” value is given as “prevented”.

`N=C(N)NCCC[C@@H]1NC(=O)[C@H](CO)NC(=O)[C@H](Cc2ccc(O)cc2)NC(=O)[C@H](CCCNC(=N)N)NC(=O)[C@H](CO)NC1=O` [[SRSRY], [Ser-Arg-Ser-Arg-Tyr]] (cyclo(RSRYS)): in data set [1], the remaining at 1 h was less than 85% and the remaining at 24 h is greater than 80%. Also, at FPR1, the “agonist-dependent FPR1 internalization in RBL-2H3/ETFR cells” value is listed as “prevented agonist-dependent FPR1 internalization”.
